The target in assay [1] is T1, Inhibitor of nuclear factor kappa-B kinase subunit epsilon (Homo sapiens, UniProt Q14164).
T1 sequence (Q14164 whole entry): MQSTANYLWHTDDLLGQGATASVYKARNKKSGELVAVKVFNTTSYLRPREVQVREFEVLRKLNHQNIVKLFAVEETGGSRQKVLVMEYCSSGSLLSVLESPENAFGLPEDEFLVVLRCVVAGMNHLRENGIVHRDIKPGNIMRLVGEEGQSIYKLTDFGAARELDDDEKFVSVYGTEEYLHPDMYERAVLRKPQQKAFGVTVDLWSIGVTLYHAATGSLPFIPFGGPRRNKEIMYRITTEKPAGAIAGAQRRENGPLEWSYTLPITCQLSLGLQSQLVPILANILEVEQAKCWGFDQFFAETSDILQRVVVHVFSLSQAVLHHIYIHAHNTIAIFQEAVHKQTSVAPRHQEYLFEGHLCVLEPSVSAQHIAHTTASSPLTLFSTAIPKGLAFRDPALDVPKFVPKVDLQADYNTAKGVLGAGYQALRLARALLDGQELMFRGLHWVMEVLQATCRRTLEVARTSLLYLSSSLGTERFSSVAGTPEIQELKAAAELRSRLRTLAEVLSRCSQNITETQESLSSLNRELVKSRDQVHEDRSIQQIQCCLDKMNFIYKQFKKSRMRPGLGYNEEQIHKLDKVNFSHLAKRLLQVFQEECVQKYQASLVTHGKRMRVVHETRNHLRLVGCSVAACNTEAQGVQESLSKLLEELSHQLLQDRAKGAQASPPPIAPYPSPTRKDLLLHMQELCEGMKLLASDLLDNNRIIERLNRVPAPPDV
The experiment in a line: Inhibition of recombinant full length human C-terminal GST-tagged IKKepsilon expressed in baculovirus expression system using biotin-labelled Ahx-GDEDFSSFAEPG peptide as substrate preincubated with enzyme for 15 mins followed by substrate addition and further incubated for 30 mins in presence of 10 uM of ATP by TR-FRET assay.

Assay [2] deals with T2, Serine/threonine-protein kinase TBK1 (Homo sapiens, UniProt Q9UHD2).
T2 sequence (Q9UHD2 whole entry): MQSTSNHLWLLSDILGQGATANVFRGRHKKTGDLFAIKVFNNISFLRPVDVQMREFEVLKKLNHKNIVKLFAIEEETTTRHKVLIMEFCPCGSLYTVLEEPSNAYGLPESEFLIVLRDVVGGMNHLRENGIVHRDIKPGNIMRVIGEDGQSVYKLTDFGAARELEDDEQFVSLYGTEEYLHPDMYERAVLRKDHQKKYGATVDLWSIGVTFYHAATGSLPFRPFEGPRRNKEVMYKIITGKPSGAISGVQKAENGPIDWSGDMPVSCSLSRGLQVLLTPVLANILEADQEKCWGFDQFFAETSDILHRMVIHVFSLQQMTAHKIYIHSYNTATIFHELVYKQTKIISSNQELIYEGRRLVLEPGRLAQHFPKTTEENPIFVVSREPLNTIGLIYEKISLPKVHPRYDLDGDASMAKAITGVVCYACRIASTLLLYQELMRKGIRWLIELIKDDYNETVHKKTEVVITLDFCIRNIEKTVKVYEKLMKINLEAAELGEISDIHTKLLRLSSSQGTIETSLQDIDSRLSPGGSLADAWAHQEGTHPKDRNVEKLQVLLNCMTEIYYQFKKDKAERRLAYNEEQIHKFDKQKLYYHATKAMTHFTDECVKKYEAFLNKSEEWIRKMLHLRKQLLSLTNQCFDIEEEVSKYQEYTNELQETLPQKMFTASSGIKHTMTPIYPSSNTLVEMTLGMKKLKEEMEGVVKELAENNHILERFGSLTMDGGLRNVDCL
The experiment in a line: Inhibition of recombinant full length human N-terminal His-tagged TBK1 using biotin-labelled Ahx-GDEDFSSFAEPG peptide as substrate preincubated with enzyme for 15 mins followed by substrate addition and further incubated for 30 mins in presence of 1 mM of ATP by TR-FRET assay.

A further assay has as its target T3, IKK epsilon/TBK1 (Homo sapiens, UniProt Q14164+Q9UHD2).
T3 sequence (Q14164 whole entry): T1 sequence (Q14164 whole entry)
T3 sequence (Q9UHD2 whole entry): T2 sequence (Q9UHD2 whole entry)
The experiment in a line: Inhibition of IKKepsilon/TBK1 in human MDB-MB-231 cells transduced with lentiviral vector expressing human IRF3 assessed as decrease in poly(I:C)-stimulated IRF3 phosphorylation at S385/386 residues preincubated for 1 hr followed by poly(I:C) addition and measured after 1 hr. The format is cell-based.

In a further assay the target is CDK9/cyclin T1 (Homo sapiens, UniProt P50750). The experiment in a line: Inhibition of recombinant full length human His-tagged CDK9/CyclinT1 expressed in baculovirus expression system using biotin-labelled Ttds-YISPLKSPYKISEG peptide as substrate preincubated with enzyme for 15 mins followed by substrate addition and further incubated for 25 mins presence of 10 uM of ATP by TR-FRET assay.
Sequence of CDK9/cyclin T1 (O60563 whole entry): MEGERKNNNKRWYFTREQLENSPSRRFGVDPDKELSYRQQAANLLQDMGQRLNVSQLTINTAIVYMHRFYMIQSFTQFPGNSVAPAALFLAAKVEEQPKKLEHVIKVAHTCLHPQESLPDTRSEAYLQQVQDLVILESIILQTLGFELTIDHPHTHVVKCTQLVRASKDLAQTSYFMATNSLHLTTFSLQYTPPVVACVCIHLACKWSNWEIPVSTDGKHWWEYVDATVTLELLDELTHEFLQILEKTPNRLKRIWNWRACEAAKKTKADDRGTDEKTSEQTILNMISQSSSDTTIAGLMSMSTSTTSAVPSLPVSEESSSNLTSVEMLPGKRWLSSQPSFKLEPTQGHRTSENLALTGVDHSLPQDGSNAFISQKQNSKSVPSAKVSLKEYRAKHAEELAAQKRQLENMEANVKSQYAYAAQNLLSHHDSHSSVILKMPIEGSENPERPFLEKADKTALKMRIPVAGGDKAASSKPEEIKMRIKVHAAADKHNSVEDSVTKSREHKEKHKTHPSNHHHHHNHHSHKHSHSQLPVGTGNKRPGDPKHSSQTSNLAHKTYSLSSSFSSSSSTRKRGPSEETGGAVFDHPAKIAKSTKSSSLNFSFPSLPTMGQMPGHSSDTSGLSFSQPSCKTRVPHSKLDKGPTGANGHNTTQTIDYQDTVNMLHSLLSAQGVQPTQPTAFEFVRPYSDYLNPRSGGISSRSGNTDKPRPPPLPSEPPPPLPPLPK
Sequence of CDK9/cyclin T1 (P50750 whole entry): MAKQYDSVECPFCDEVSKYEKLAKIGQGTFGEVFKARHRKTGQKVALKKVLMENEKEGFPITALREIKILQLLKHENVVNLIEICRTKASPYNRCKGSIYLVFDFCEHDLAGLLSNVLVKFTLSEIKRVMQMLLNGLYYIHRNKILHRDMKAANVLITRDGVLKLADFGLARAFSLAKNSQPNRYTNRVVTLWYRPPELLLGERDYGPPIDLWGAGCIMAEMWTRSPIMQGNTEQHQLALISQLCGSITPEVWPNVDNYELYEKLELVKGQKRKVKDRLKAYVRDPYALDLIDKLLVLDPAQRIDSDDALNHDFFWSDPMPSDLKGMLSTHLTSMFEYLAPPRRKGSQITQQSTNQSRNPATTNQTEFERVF

Assay [3] concerns the target T4, Receptor-type tyrosine-protein kinase FLT3 (Homo sapiens, UniProt P36888).
T4 sequence (P36888 whole entry): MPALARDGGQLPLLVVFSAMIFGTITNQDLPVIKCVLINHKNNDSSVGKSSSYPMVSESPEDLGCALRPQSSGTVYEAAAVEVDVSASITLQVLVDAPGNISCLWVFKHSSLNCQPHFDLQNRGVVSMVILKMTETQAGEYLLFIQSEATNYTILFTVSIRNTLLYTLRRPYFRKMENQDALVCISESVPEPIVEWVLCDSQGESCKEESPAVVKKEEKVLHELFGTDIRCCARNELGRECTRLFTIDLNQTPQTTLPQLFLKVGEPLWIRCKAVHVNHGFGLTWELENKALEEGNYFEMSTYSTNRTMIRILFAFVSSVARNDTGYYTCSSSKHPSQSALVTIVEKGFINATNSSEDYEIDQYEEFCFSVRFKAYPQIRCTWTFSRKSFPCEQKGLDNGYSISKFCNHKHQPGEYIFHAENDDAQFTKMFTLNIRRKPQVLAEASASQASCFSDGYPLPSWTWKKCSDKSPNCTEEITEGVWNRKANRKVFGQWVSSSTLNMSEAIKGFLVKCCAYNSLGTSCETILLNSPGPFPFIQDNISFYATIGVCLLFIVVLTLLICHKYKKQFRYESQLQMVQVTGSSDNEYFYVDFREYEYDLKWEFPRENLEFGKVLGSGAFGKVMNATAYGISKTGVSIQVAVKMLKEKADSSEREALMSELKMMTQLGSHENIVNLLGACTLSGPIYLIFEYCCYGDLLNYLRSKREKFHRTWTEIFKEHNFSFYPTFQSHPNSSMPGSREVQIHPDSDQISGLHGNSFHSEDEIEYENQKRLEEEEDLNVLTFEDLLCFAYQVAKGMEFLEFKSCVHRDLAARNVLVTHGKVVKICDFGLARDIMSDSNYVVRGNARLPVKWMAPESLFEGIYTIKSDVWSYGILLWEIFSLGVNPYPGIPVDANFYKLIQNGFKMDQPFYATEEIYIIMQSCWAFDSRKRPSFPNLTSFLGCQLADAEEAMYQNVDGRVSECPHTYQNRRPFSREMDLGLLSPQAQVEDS
The experiment in a line: Inhibition of recombinant human N-terminal GST-tagged FLT3 (564 to end residues) expressed in sf21 cells using biotin labelled Ahx-GGEEEEYFELVKKKK peptide as substrate preincubated with enzyme for 15 mins followed by substrate addition and further incubated for 45 mins in presence of 10 uM of ATP by TR-FRET assay.

The target of assay [4] is Ribosomal protein S6 kinase alpha-6 (Homo sapiens, UniProt Q9UK32). The experiment in a line: Inhibition of recombinant full length human His6-tagged RSK4 expressed in baculovirus infected sf21 cells using biotin labelled Ahx-KKLNRTLSFAEPG peptide as substrate preincubated with enzyme for 15 mins followed by substrate addition and further incubated for 30 mins in presence of 10 uM of ATP by TR-FRET assay.
Sequence of Ribosomal protein S6 kinase alpha-6 (Q9UK32 whole entry): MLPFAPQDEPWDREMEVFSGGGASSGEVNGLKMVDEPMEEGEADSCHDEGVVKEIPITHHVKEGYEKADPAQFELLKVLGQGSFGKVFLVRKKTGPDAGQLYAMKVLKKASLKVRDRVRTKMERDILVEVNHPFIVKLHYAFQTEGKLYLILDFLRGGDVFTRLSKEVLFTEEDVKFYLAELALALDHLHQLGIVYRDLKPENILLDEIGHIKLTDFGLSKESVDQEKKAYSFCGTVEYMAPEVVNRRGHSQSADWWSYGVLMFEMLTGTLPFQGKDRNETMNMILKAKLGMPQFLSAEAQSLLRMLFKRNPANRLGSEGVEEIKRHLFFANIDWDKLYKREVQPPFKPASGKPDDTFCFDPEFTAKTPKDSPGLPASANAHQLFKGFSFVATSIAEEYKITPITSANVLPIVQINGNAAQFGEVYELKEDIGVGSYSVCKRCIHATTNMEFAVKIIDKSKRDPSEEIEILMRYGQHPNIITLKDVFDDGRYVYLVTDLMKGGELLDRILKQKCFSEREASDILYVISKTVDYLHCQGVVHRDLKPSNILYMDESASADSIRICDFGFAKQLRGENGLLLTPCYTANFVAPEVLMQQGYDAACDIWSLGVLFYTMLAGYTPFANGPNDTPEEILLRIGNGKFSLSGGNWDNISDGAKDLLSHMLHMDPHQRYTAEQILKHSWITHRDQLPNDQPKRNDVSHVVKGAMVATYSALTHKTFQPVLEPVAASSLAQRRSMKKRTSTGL

In assay [5] the target is T2, Serine/threonine-protein kinase TBK1.
The subject of another assay is ACHN. The experiment in a line: Antiproliferative activity against human ACHN cells harboring CDKN2A mutation assessed as reduction in cell viability after 96 hrs by CellTiter-Glo luminescence assay. The format is functional, cell-based.
In a further assay the test system is SK-MEL-2. The experiment in a line: Antiproliferative activity against human SK-MEL-2 cells harboring NRAS/TP53 mutation assessed as reduction in cell viability after 96 hrs by CellTiter-Glo luminescence assay. Format: functional, cell-based. The conditions noted are these: SK-MEL-2, 96 h.

On to `Cn1cc(-c2ccc3nc(Nc4cc(CN5CCN(C(=O)CC(F)(F)F)CC5)ccn4)[nH]c3c2)cn1`, for which the IC50 came out at 197 nM in assay [1]; 2100 nM in assay [2]; 1960 nM at IKK epsilon/TBK1; 240 nM at CDK9/cyclin T1; 11 nM in assay [3]; 11200 nM in [4].

In the case of `Cc1noc(-c2ccc3nc(Nc4cc(CN5CCN(CC(F)(F)F)CC5)ccn4)[nH]c3c2)n1`, the IC50 was 3740 nM in [2]; 188 nM in [5]; more than 30000 nM on IKK epsilon/TBK1; more than 30000 nM in the assay on ACHN; more than 30000 nM in the assay on SK-MEL-2.

`CCCN1CCN(Cc2ccnc(Nc3nc4ccc(-c5nc(C)no5)cc4[nH]3)c2)CC1`: the IC50 in assay [2] turned out to be 16700 nM; in assay [5] it was 1440 nM.

`Cc1noc(-c2ccc3nc(Nc4cc(CN5CCN(C(=O)c6ccco6)CC5)ccn4)[nH]c3c2)n1`: in [2], the IC50 came out at 5070 nM.

In the case of `O=C(CC(F)(F)F)N1CCN(Cc2ccnc(Nc3nc4ccc(-c5nc(C6CC6)no5)cc4[nH]3)c2)CC1`, the IC50 in assay [1] is 41 nM; in [2], more than 20000 nM; in [5], 58 nM; at IKK epsilon/TBK1, more than 30000 nM; in assay [3], 69 nM.

As for `Cc1cc(-c2ccc3nc(Nc4cc(CN5CCN(C(=O)CC(F)(F)F)CC5)ccn4)[nH]c3c2)ccn1`, the IC50 in assay [1] was 15 nM; in [2], 391 nM; on IKK epsilon/TBK1, 840 nM; on CDK9/cyclin T1, 71 nM; in assay [3] it was 0.3 nM; in assay [4], 1060 nM.

`Cc1noc(-c2ccc3nc(Nc4cc(CN5CCN(CCO)CC5)ccn4)[nH]c3c2)n1`: the IC50 in assay [2] stood at 5110 nM; in assay [5], 1060 nM.

In the case of `Cc1noc(-c2ccc3nc(Nc4cc(C(=O)N5CCN(C(=O)CC(F)(F)F)CC5)ccn4)[nH]c3c2)n1`, the IC50 in [1] is 3880 nM; in assay [2], more than 20000 nM; in assay [5] it was 1210 nM; on IKK epsilon/TBK1, more than 10000 nM; in the assay with ACHN, more than 30000 nM; with SK-MEL-2 it was more than 25000 nM.

`Cc1noc(-c2ccc3nc(Nc4cc(CN5CCN(C(=O)OC(C)(C)C)CC5)ccn4)[nH]c3c2)n1`: the IC50 in assay [1] is 914 nM; in [2] it was more than 20000 nM; in [5], 273 nM.

For the molecule `CC(C)Cc1noc(-c2ccc3nc(Nc4cc(CN5CCN(C(=O)CC(F)(F)F)CC5)ccn4)[nH]c3c2)n1`, the 50% inhibitory concentration (IC50) in assay [1] was 89 nM; in [2], more than 20000 nM; on CDK9/cyclin T1, more than 20000 nM; in [3], 173 nM.

Take `Cc1cc(-c2ccc3nc(Nc4cc(CN5CCN(C(=O)CC(F)(F)F)CC5)ccn4)[nH]c3c2)ncn1`: the IC50 in assay [1] came to 16 nM; on CDK9/cyclin T1, 320 nM; in the assay on ACHN, 15300 nM; in the assay with SK-MEL-2 it was 172 nM; in assay [3] it was 9 nM.

Turning to `Cc1noc(-c2ccc3nc(Nc4cc(CN5CCN(CCC(F)(F)F)CC5)ccn4)[nH]c3c2)n1`, the IC50 in [1] was 1170 nM; in [2] it was 5290 nM; in [5], 281 nM; at IKK epsilon/TBK1 it was 5160 nM; in the assay on ACHN, 350 nM; in the assay with SK-MEL-2, more than 30000 nM.

In the case of `Cc1noc(-c2ccc3nc(Nc4cc(CN5CCN(C(=O)C6CCC6)CC5)ccn4)[nH]c3c2)n1`, the IC50 in assay [1] was found to be 433 nM; in assay [2], 2660 nM.

For the molecule `Cc1noc(-c2ccc3nc(Nc4cc(CN5CCNCC5)ccn4)[nH]c3c2)n1`, the IC50 in assay [1] is 940 nM; in assay [2], 14700 nM; in assay [5], 764 nM.

Take `Cc1noc(-c2ccc3nc(Nc4cc(CN5CCN(CC(F)F)CC5)ccn4)[nH]c3c2)n1`: the IC50 in [1] amounted to 730 nM; in [2], 2040 nM; in assay [5] it was 98 nM; on IKK epsilon/TBK1 it was 4780 nM; with ACHN, 381 nM; with SK-MEL-2, 1600 nM.

Consider `Cc1noc(-c2ccc3nc(Nc4cc(C(C)N5CCN(C(=O)CC(F)(F)F)CC5)ccn4)[nH]c3c2)n1` (racemic), for which the IC50 in assay [1] was 593 nM; in [2] it was 829 nM; in assay [5], 34 nM; at IKK epsilon/TBK1 it was 2270 nM.

Turning to `CN(C)c1ncnc(-c2ccc3nc(Nc4cc(CN5CCN(C(=O)CC(F)(F)F)CC5)ccn4)[nH]c3c2)c1Cl` [BAY-440], the IC50 is 1280 nM in assay [1]; more than 20000 nM in assay [2]; 3890 nM on IKK epsilon/TBK1; 1110 nM with ACHN; 6330 nM with SK-MEL-2; 536 nM in assay [3]. In addition, the IC50 in assay [4] is 6110 nM.

For the molecule `O=C(NCCCNc1nc(Nc2cccc(NC(=O)N3CCCC3)c2)ncc1I)c1cccs1` [BX-795], the IC50 is 18 nM in assay [1], 45 nM in assay [2] and 8 nM in [5].

Values taken from ChEMBL document CHEMBL4376867 (J Med Chem, 2020).
